The values below come from ChEMBL document CHEMBL1140603, “Simple criterion for selection of flavonoid compounds with anti-HIV activity” (Bioorg Med Chem Lett, 2007).

Molecules are shown by their SMILES.

The assay has as its system Human immunodeficiency virus 1. Description: Inhibition of HIV1 replication. In kind it is functional, organism-based.
The compound `O=c1cc(-c2ccc(O)c(O)c2)oc2ccccc12` came in with a concentration giving a half-maximal response (EC50) of at least 100 µM.
`O=c1c(O)c(-c2cc(O)c(O)c(O)c2)oc2cc(O)cc(O)c12` [MYRICETIN] yielded an EC50 of under 100 µM.
In turn, `O=c1cc(-c2ccccc2)oc2cc(O)cc(O)c12` [CHRYSIN] came in with an EC50 of at least 100 µM.
In turn, `O=c1cc(-c2ccc(O)cc2)oc2cc(O)cc(O)c12` [APIGENIN] came in with an EC50 of at least 100 µM.
Next, `O=c1c(O)c(-c2ccc(O)cc2O)oc2cc(O)cc(O)c12` [MORIN]: under 100 µM; `O=c1c(O)c(-c2ccc(O)c(O)c2)oc2cc(O)ccc12` [FISETIN]: under 100 µM; `O=c1c(O)c(-c2ccc(O)cc2)oc2cc(O)cc(O)c12` [KAEMPFEROL]: under 100 µM.
For `O=c1cc(-c2ccccc2)oc2cc(O)ccc12` [7-HYDROXYFLAVONE], the EC50 was at least 100 µM.
As for `COc1ccc(-c2cc(=O)c3c(OC)c(OC)c(OC)cc3o2)cc1OC` [SINENSETIN], the EC50 was at least 100 µM.
The compound `COc1cc(O)c2c(=O)c(O)c(-c3ccc(O)c(O)c3)oc2c1` [RHAMNETIN] came in with an EC50 of under 100 µM.
`COc1ccc(-c2cc(=O)c3c(O)cc(O)cc3o2)cc1` [ACACETIN]: the EC50 was at least 100 µM.
In turn, `O=c1c(O)c(-c2ccc(O)c(O)c2)oc2cc(O)c(O)c(O)c12` [QUERCETAGETIN] had a concentration giving a half-maximal response (EC50) of under 100 µM.
Next, `COc1ccc(-c2cc(=O)c3c(OC)c(OC)ccc3o2)cc1OC`: at least 100 µM; `COc1ccc(-c2cc(=O)c3c(OC)c(OC)c(OC)cc3o2)cc1`: at least 100 µM; `COc1ccc(-c2oc3cc(O)ccc3c(=O)c2OC)cc1`: at least 100 µM.
As for `COc1ccc(-c2cc(=O)c3c(OC)c(OC)c(OC)c(OC)c3o2)cc1` [TANGERETIN], the EC50 was at least 100 µM.
Next, `O=c1c(O)c(-c2cc(O)c(O)c(O)c2)oc2cc(O)ccc12` [ROBINETIN]: under 100 µM.
To `COc1c(O)cc2oc(-c3ccc(O)c(O)c3)cc(=O)c2c1O` [EUPAFOLIN] belongs under 100 µM.
To `COc1cc(O)c2c(=O)cc(-c3ccc(O)cc3)oc2c1` [GENKWANIN] belongs at least 100 µM; to `O=c1c(O)c(-c2ccc(O)c(O)c2)oc2cc(O)cc(O)c12` [QUERCETIN], under 100 µM.

As a reminder, the EC50 is the concentration that produces a half-maximal response. Low readings indicate higher potency in that assay, high ones lower potency in that assay.
